Test results taken from patent US8415156B2, “Recombinant laminin-521” (Biolamina AB, priority 2010, dated 2013).

Key:
Assay type in all cases: cell-based, human
hES cells = experiment: Cell survival assay, 24 hours (Example 2)
Procedure: Tissue cell culture plates were coated overnight at 4° C. with sterile solutions of the ECM proteins, such as human recombinant LN-521, all at a concentration of 30 μg/ml (5 μg/cm^2). Control plates were coated with Matrigel according to the STEMCELL Technologies' instructions. Prior to use, dishes were pre-warmed in an incubator for one hour after which prewarmed O3 medium was added without additional washing of the dish. After applying a fresh LN-521 solution to a new dish, the remaining LN-521 solution could be used at least once more. All the adhesion, survival, and inhibition of survival experiments were carried out using fresh coating materials.
Briefly, 96-well plates were coated by extracellular matrix proteins as described above and blocked by O3 medium containing bovine serum albumin. The ES cells were plated at cell density of 50,000 cells/cm^2 onto extracellular matrix-coated plates and left to adhere for 1 hour in a cell incubator. After that the plates were washed 3 times with the medium to remove the non-adherent cells, and then the adherent cells were fixed for 20 minutes by 5% glutaraldehyde, stained by 0.1% Crystal Violet. (Kebo Lab, Spanga, Sweden, www.kebolab.se). After one hour and 3 washes with water, Crystal Violet was extracted with 10% acetic acid and quantified by measuring optical density at 570 nm. All the experiments were performed in quadruplicate.
The survival assay was performed as described for the cell adhesion assay above, except that the cells were left in the cell incubator for 24 hours. For inhibition of survival assay, the cells were kept in a medium with function blocking antibodies at the concentrations recommended by the manufacturer or pathway inhibitors at concentrations indicated in the text for 30 minutes, and then plated on the coated dishes. All the experiments were performed in quadruplicate.
Pluripotent hES cells express α1, α5, β1, β2 and γ1 laminin chains. To compare the adhesion and clonal survival of hES cells plated from single cell suspension to different coating substrata, hES cells growing as monolayers on LN-511 or as clusters on a feeder layer were trypsinized into single cell suspension in O3 medium and plated on cell culture dishes coated with Matrigel, LN-111, LN-511, LN-521 or a mixture of LN-511 and LN-521, in the absence or presence of a ROCK inhibitor (Y-27632) and analyzed after 24 hours.

[1] = tested on: Oct4, Nanog, SSEA4; PAX6, SOX17, SOX7; experiment: Expression of pluripotency and differentiation markers (Example 2); conditions: compared with Matrigel passed as small clumps
Procedure: For immunofluorescence studies, ES cells were cultured and fixed in 8-well slide chambers (BD Biosciences) or 96-well plate wells by 4% paraformaldehyde, permeabilized by 0.1% Triton-X and blocked by 10% bovine fetal serum (GIBCO Invitrogen Corporation) in phosphate-saline buffer (PBS) containing 0.1% Tween-20 (Sigma-Aldrich, St. Louis, www.sigmaaldrich.com) for one hour. Incubation with primary antibody was performed for 1.5 hours at room temperature. Incubation with secondary antibody and 4,6-diamidino-2-phenylindole (DAPI, Molecular Probes) was performed for 40 minutes. Between incubations, the specimens were washed with 0.1% Tween-20 in PBS buffer three to five times. Specimens were preserved in a fluorescence mounting medium (Dako, Glostrup, Denmark, http://www.dako.com), and observed under a fluorescence microscope (Leica, Heerbrugg, Switzerland, http://www.leica.com).
Total RNA was isolated using Absolutely RNA Microprep Kit (Stratagene, La Jolla Calif., www.stratagene.com) according to the manufacturer's instructions. cDNA was synthesized using 0.2 μg of total RNA in 20 μl reaction mixture, containing oligo(dT)12-18 primers and Superscript II reverse transcriptase (GIBCO Invitrogen Corporation), according to the manufacturer's instructions. […] All data was analyzed with 7300 System SDS Software v 1.4. […]

myosin light chain (MLC) = experiment: Western blot of phosphorylated myosin light chain; conditions: one and six hours after plating
Procedure: HS181 cells were trypsinized into single cell suspension as described above. For inhibition experiments, the cells were kept in O3 medium with blocking antibodies or pathway inhibitors for 30 minutes and then 450K cells were plated on 35 mm dishes precoated with the appropriate matrix coating. For other experiments, same number of cells was plated directly after trypsinization. […] After two washings in ice-cold PBS, the plates with cells were snap frozen in liquid nitrogen and stored at −80° C. To prepare samples for western blots and ELISA, the plates were slowly thawed and kept on ice with 100-150 μl of lysis buffer (50 mM Tris-HCl, pH7.5, 150 mM NaCl, 0.5% deoxycholate, 0.5% SDS, 1% Triton X-100, 1% Igepal, Complete™ (Roche) and Phospho-Stop™ (Roche)) on top. Then, the cells were scraped, pipetted and sheared through a 27G ¾″ needle. After that, the cell pellets were clarified by centrifugation at 16,100 rcf for 15 minutes at 4° C. For western blots, 4-12% gradient gels were used for SDS electrophoresis and the proteins were transferred to PVDF membranes. The membrane was hybridized with the antibody of interest according to the manufacturer's instructions. Chemoluminescent HRP-substrate from Amersham Biosciences was used for visualization. For the densitometry analysis the films were scanned at 2,400 dpi and analyzed by the Chemilmager5500 program (1D-Multi Line densitometry mode). […]

LN-521: protein formed by joining α5, β2 and γ1 chains together; human recombinant, produced in HEK293 cells
survival of Y-27632 treated human ES cells on LN-521 compared with Matrigel (hES cells; 10 μM of Y-27632, 40,000 cells per 1 cm^2): survived better
survival on LN-521 compared with LN-511 (hES cells; 24 hours, absence of ROCK inhibitor): significantly higher
cell shape of cells growing on LN-521 24 hours after plating (hES cells; LN-521 row: absence of ROCK inhibitor, Y-27632 row: presence of ROCK inhibitor): round
survival relative to Matrigel, exogenous bFGF removed (hES cells; O3 medium without exogenous bFGF): 20 times
survival of hES cells plated from single cell suspension after 24 hours (hES cells; O3 medium, absence of ROCK inhibitor): did so as single cells
survival 24 hours after plating in medium lacking all growth factors of the TeSR1 formulation (hES cells; no bFGF, LiCl, GABA, pipecolic acid and TGFβ): survived
expression levels of pluripotency markers Oct4, Nanog, and SSEA4 [1]: stable expression levels
phosphorylation of MLC compared with cells on Matrigel and LN-111 (myosin light chain (MLC)): even higher
